The results in this text go back to patent US9060945B2, “Use of danielone and derivatives thereof in skin care” (DSM IP Assets B.V., priority 2012, dated 2015).

Common to all, as to type: cell-based
Series [1] has as its system Human melanocytes moderately pigmented (HEMn-MP). Kind of series: Cell-pellet depigmentation assay. Particulars: scale 1 to 5 (5 = dark control cell pellet, 1 = very light brown cell pellet). Here is the method:
Human melanocytes moderately pigmented (HEMn-MP) were seeded in 6-well culture plates at a cell density of 2×10E5 cells/mL and preincubated for three days in a 1:2 mixture of M2-Medium (Clonetics) and Promocell-Medium together ‘Culture medium’ in an incubator at a temperature of 37° C. and at 5% CO2 Atmosphere. Culture medium was exchanged with Culture Medium containing compound and melanogenesis progressed for another three days in an incubator at same incubation conditions as described above. Compound dilutions were done in duplicates. Cells were harvested after trypsinization and pooled in eppendorf-tubes, centrifugated and supernatant removed. The remaining cell pellet was photographed and visually checked for whitening effects. The pellets were scored for their darkness in a scale 1 to 5 (5 corresponding to dark control cell pellet) and 1 corresponding to a very light brown cell pellet.

The subject of series [2] is Normal human melanocytes moderately pigmented (HEMn-MP). The series is described as follows: Quantification of melanin synthesis in cell culture. The settings on record: 3 days, baseline = 100, 405 nm. Here is the method:
Normal human melanocytes moderately pigmented (HEMn-MP) were seeded in 96 well cell culture plates (20′000 cells per well) and grown to sub-confluence for three days in a 1:2 mixture of M2-Medium (Clonetics) and Promocell-Medium together ‘Culture medium’. Culture medium was exchanged with Culture Medium containing compound and melanogenesis progressed for another three days in an incubator at a temperature of 37° C. and at 5% CO2 atmosphere. Including cell layer and culture supernatant total melanin was extracted using 1.7M KOH with shaking at 300 rpm for approximately 1 hour at room temperature. We measured melanin content at 405 nm in an absorbance plate reader. We use phenylthiourea (PTU) as a positive control at a concentration of 0.0152% (1 mM). PTU is a tyrosinase inhibitor (Poma 1999) and is commonly used as a reference in cell pigmentation assays (see e.g. Le Pape 2008).

For series [3], the system named is Normal human melanocytes NHM (HEMn-MP). The series is described as follows: Effect on melanogenesis, comparative example (melanin synthesis in cell culture). Particulars: for skin whitening activity (in words): at all three concentrations tested; for % melanin inhibition: 3 days, 405 nm. Here is the method: Normal human melanocytes NHM (HEMn-MP) were seeded in 96 well cell culture plates (20′000 cells per well) and grown to sub-confluence for three days in a 1:2 mixture of M2-Medium (Clonetics) and Promocell-Medium together ‘Culture medium’. Culture medium was exchanged with Culture Medium containing compound and melanogenesis progressed for another three days at a temperature of 37° C. and at 5% CO2 atmosphere. Including cell layer and culture supernatant total melanin was extracted using 1.7M KOH with shaking at 300 rpm for approximately 1 hour at RT. We measured melanin content at 405 nm in an absorbance plate reader. The experiment was done in triplicates. We used PTU as a positive control.

Series [4] deals with Normal human melanocytes moderately pigmented (HEMn-MP). Kind of series: Cytotoxicity, MTT assay. Particulars: 3 days incubation, OD 550 nm. Here is the method:
Cytotoxicity was measured using the MTT assay (Roche). In brief: Normal human melanocytes moderately pigmented (HEMn-MP) were precultured for 24 hrs, and then incubated with compounds for three days. We then added MTT (Roche) labeling reagent 10 μl to each well (final concentration 0.5 mg/ml) and incubated the microtiterplate for 4 hrs at 37° C., and under 5% CO2. After addition of 100 μl solubilisation solution into each well, the plate was allowed to stand overnight in the incubator (37° C., 5% CO2. The absorbance OD 550 nm was measured in an absorbance plate reader (ELX 800 BIO-TEK Instrument) and the data is shown in Table 1.
On the technique in general: Formazan colour is commonly taken as a measure of viable cells.

Molecules are shown by their SMILES.

For `COc1cc(C(=O)CO)cc(OC)c1O` [Danielone, 2-hydroxy-1-(4-hydroxy-3,5-dimethoxy-phenyl)-ethanone], the “Darkness level of the cell pellet” value in series [1] (0.0025%) came out at 2. Moreover, the figures for the Total melanin in series [2] (concentration 0.000625 %), in series [2] (concentration 0.00125 %) and in series [2] (concentration 0.0025 %) were 104%, 75% and 66%, respectively. Besides, the “skin whitening activity (in words)” value in series [3] is “very efficient”. Besides, the entries for the “% melanin inhibition” value in series [3] (concentration 0.0025%), in series [3] (concentration 0.005%) and in series [3] (concentration 0.01%) were 1.51%, −40.20% and −49.25%, respectively. Further, the Viability in series [4] (concentration 0.00025 %) was 112%; in series [4] (concentration 0.0025 %) it was 113%; in series [4] (concentration 0.025 %), 51%.

In the case of `NC(=S)Nc1ccccc1` [PTU, phenylthiourea, reference compound], in series [1] (0.0152%), the “Darkness level of the cell pellet” value came to 1. This compound also returned a Total melanin in series [2] (concentration 0.0152 % (1 mM)) of 58%.

Consider `COc1cc(C(=O)CCO)ccc1O` [beta-hydroxypropiovanillon, reference compound], for which, in series [3], the “skin whitening activity (in words)” value is reported as “no activity”. Also, the “% melanin inhibition” value in series [3] (concentration 0.0025%) came to 7.45%; in series [3] (concentration 0.005%) it was 7.45%; in series [3] (concentration 0.01%), 4.26%.
